Data published in article PMC10177380 (Cancers, 2023).
Like-named read-outs stand apart in the source and are kept apart here.

Legend:
[1] = tested on: HT29 colon; assay: MTT growth inhibition, 72 h, HT29; assay type: cell-based, human
[2] = tested on: A431 skin; assay: MTT growth inhibition, 72 h, A431; assay type: cell-based
[3] = tested on: multiple cell lines; assay: MTT growth inhibition, over all cell lines tested; assay type: cell-based
[4] = tested on: HT29 colon cells; assay: Mitochondrial membrane potential, TMRE-MtMP assay; assay type: cell-based, human; conditions: treatment at GI50 concentration (FCCP positive control 20 μM)
Text: To study the MtMP changes in treated cells, a TMRE-MtMP Assay Kit (Abcam, Cambridge, MA, USA) was used (see Supplementary Materials).
TMRE was used to stain HT29 colon cells, and treatment with the complexes and ligands was completed at each specific GI50 concentration. The MtMP changes detected are expressed as RFU. Additionally, lower RFU values correspond to a decline in mitochondrial activity. […]
dimethylthiazol-2-yl]-2,5-diphenyltetrazolium bromide) assay and absorbance was read at 540 nm. An eight-point dose response curve was produced from which the GI50 value was calculated, representing the drug concentration at which cell growth was inhibited by 50% based on the difference between the optical density values on day 0 and those at the end of drug exposure. […]
5. Mitochondrial Membrane Potential (MtMP)
In 96-well plates, 25,000 cells/mL of HT29 colon cells in DMEM were seeded. Cells were treated with a GI50 drug concentration for each complex. […]
washed with PBS and stained with 1 μM tetramethylrhodamine, ethyl ester (TMRE) and incubated for 30 min. TMRE was then removed, and cells were then re-washed with PBS (0.2% BSA), after which phenol red free media was added. The plates were directly scanned to measure fluorescence (expressed as RFU), using the Glo-Max®-Multimode […]
microplate reader (Promega Corporation, Alexandra, VIC, Australia) at an […]
For the positive control, 20 μM carbonyl cyanide 4-(trifluoromethoxy) phenylhydrazone (FCCP)) was added to the cells and incubated for 10 min. The cells were washed with PBS (0.2% BSA) and stained with TMRE (1 μM) for 30 min; this was removed and phenol red free media was added, and the final solution was scanned as mentioned above. […]

[5] = biological target: T1, COX-2 (human) (Homo sapiens, UniProt P35354); assay: COX-2 (human) Inhibitor Screening Assay Kit (ELISA); assay type: biochemical; set-up: concentration or dose not given beside the values
T1 construct: purchased Cayman Chemical Item No. 701080
T1 sequence (P35354 18-604): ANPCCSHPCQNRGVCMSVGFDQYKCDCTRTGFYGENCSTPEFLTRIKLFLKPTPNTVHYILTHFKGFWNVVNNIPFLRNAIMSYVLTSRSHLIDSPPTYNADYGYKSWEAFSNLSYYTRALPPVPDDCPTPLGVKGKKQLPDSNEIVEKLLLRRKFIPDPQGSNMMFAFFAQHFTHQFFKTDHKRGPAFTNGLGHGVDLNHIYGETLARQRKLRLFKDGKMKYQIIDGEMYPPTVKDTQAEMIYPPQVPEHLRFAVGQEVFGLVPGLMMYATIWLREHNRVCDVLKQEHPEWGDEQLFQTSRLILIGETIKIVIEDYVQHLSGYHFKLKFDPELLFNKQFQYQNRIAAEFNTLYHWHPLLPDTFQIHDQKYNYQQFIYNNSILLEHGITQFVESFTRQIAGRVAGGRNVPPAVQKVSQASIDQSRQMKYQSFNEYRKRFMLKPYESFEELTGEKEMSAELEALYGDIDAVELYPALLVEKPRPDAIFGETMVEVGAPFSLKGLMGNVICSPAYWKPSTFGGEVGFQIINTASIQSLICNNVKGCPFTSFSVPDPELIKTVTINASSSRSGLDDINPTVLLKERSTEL
Text: NSAIDs are well recognised as inhibitors of the COX enzymes, COX-1 and COX-2 [37, 42, 45]. […] COX-1 is typically expressed in most tissues and is associated with normal physiological functions, particularly by maintaining prostaglandin production at basal levels. In contrast, COX-2 is involved in the excessive production of prostaglandin during inflammation (or hypoxia), and extensive studies have shown that COX-2 resultant prostaglandins are overexpressed in tumours. […] To explore the COX-2 inhibitory properties of the studied complexes (1–6), ELISA was used against the COX-2 enzyme. […]
6. Cyclooxygenase-2 (COX-2) Inhibition
The standards, samples and assay preparation, and completion were achieved as instructed by the manufacturer. The assay necessitated three steps, being the standards preparation, the COX reaction, and the enzyme immunoassay. The standards were prepared in 2-fold serial dilution of the prostaglandin F2α enzyme-linked immunosorbent assay (ELISA) standard starting at 500 pg/mL to 3.9 pg/mL in ELISA buffer (1X). The COX reaction dilution preparation for the background samples included the addition of background COX-2 (20 μL), which was inactivated in boiling water for 3 min. The background values were generated by adding 10 μL of the inactivated COX-2, 160 μL of the reaction buffer (1X), 10 μL of heme and 10 μL of DMSO (inhibitor vehicle). The COX reaction dilution preparation for the COX-2 100% initial activity samples included the addition 160 μL of the reaction buffer (1X), 10 μL of heme, 10 μL of COX-2 and 10 μL of DMSO (inhibitor vehicle). The COX reaction dilution preparation for the COX-2 inhibitor samples included the addition of 160 μL of the reaction buffer (1X), 10 μL of heme, 10 μL […]
The reaction was then initiated by the addition of 10 μL of arachidonic acid and potassium hydroxide solution (1:1), and […]
enzyme catalysis. The tubes were then vortexed and incubated for 5 min at room […]
temperature. The background samples were diluted with ELISA buffer (1X) 1:100 times […]
and the COX-2 100% initial activity and COX-2 inhibitor samples were diluted 1:2000 and […]
1:4000 times. For the enzyme immunoassay, 100 μL of the ELISA buffer (1X) was added […]
to non-specific binding wells (NSBs), 50 μL of the ELISA buffer (1X) was added to […]
maximum binding wells (B0) and 50 μL of each prostaglandin F2α standard was added to […]
standard wells in duplicates. 50 μL of background sample and 50 μL of COX-2 100% […]
initial activity samples were independently added to the wells in duplicates. Inhibitor […]
samples (50 μL) being investigated were added to the wells in triplicates. Prostaglandin […]
F2α acetyl-cholinesterase (AChE) tracer (50 μL) was added to all wells but the total […]
activity well and blank wells. Prostaglandin F2α ELISA antiserum (50 μL) was added to […]
each well but the total activity well, NSBs and blank wells. The plate was then covered […]
with a plastic seal and incubated overnight at room temperature on an orbital shaker. The […]
wells were then washed five times using kit wash buffer (1X). Ellman’s reagent (200 μL) […]
was then added to each well, as well as 5 μL of the AChE tracer into the total activity […]
well. The plate was then covered with the plastic seal, placed on an orbital shaker in the […]
dark to develop for 2 hours at room temperature. […]
nm using the SpectraMax M2 series multi-mode microplate reader (Molecular Devices, […]

[6] = all cell lines, MTT, 72 h, read-out: GI50 values over the cell lines tested
[7] = mean over all cell lines tested, read-out: Mean GI50 Values

## COc1ccc2c(c1)c(CC(=O)OCC(=O)O)c(C)n2C(=O)c1ccc(Cl)cc1 [ACE, acemetacin]
[1]; Homo sapiens, HT-29
  GI50: > 50000 nM
[2]; Homo sapiens, A-431
  GI50: > 50000 nM
[3]; [6]
  GI50: > 50000 nM
[3]; [7]
  GI50: > 50000 nM
[4]; HT29, 24 h
  MtMP Changes: 494 ± 6 RFU
[4]; HT29, 48 h
  MtMP Changes: 371 ± 10 RFU
[4]; HT29, 72 h
  MtMP Changes: 295 ± 13 RFU
[5]
  Percentage COX-2 Inhibitory Activity: 76 ± 8%

## N.N.[Cl][Pt][Cl] [Cisplatin, cis-diamminedichloroplatinum(II)]
[4]; HT29, 24 h
  MtMP Changes: 256 ± 9 RFU
[4]; HT29, 48 h
  MtMP Changes: 236 ± 13 RFU
[4]; HT29, 72 h
  MtMP Changes: 199 ± 11 RFU
[5]
  Percentage COX-2 Inhibitory Activity: 9 ± 2%

## COc1ccc2cc([C@H](C)C(=O)[O][Pt+2]3([OH])[N]4C=CC=c5ccc6c(c54)[N]3C=CC=6)ccc2c1.N[C@H]1CCCC[C@@H]1N [Complex 1, [Pt^IV(phen)(SS-DACH)(NPX)(OH)]^2+]
[1]
  GI50: 400 ± 23 nM
[2]
  GI50: 1020 ± 390 nM
[3]; [7]
  GI50: 931 ± 139 nM
[4]; HT29, 24 h
  MtMP Changes: 382 ± 11 RFU
[4]; HT29, 48 h
  MtMP Changes: 211 ± 12 RFU
[4]; HT29, 72 h
  MtMP Changes: 163 ± 5 RFU
[5]
  Percentage COX-2 Inhibitory Activity: 55 ± 3%

## COc1ccc2cc([C@H](C)C(=O)[O][Pt+2]3([OH])[N]4C=CC=c5cc(C)c6c(c54)[N]3C=CC=6)ccc2c1.N[C@H]1CCCC[C@@H]1N (stereo partly shown) [Complex 2, [Pt^IV(5-Mephen)(SS-DACH)(NPX)(OH)]^2+]
[1]
  GI50: 210 ± 19 nM
[2]
  GI50: 530 ± 180 nM
[3]; [7]
  GI50: 490 ± 75 nM
[4]; HT29, 24 h
  MtMP Changes: 368 ± 9 RFU
[4]; HT29, 48 h
  MtMP Changes: 160 ± 13 RFU
[4]; HT29, 72 h
  MtMP Changes: 130 ± 7 RFU
[5]
  Percentage COX-2 Inhibitory Activity: 44 ± 6%

## COc1ccc2cc([C@H](C)C(=O)[O][Pt+2]3([OH])[N]4C=CC=c5c(C)c(C)c6c(c54)[N]3C=CC=6)ccc2c1.N[C@H]1CCCC[C@@H]1N [Complex 3, [Pt^IV(5,6-Me2phen)(SS-DACH)(NPX)(OH)]^2+]
[1]
  GI50: 28 ± 6 nM
[2]
  GI50: 75 ± 33 nM
[3]; [7]
  GI50: 84 ± 12 nM
[4]; HT29, 24 h
  MtMP Changes: 351 ± 5 RFU
[4]; HT29, 48 h
  MtMP Changes: 152 ± 8 RFU
[4]; HT29, 72 h
  MtMP Changes: 104 ± 6 RFU
[5]
  Percentage COX-2 Inhibitory Activity: 37 ± 4%

## COc1ccc2c(c1)c(CC(=O)OCC(=O)[O][Pt-2]13([OH])([NH2+][C@H]4CCCC[C@@H]4[NH2+]1)[n+]1cccc4ccc5ccc[n+]3c5c41)c(C)n2C(=O)c1ccc(Cl)cc1 [Complex 4, [Pt^IV(phen)(SS-DACH)(ACE)(OH)]^2+]
[1]
  GI50: 290 ± 30 nM
[2]
  GI50: 930 ± 490 nM
[3]
  fold difference of mean GI50 compared to platinum(II) precursor: 1- to 2 fold
[3]; [7]
  GI50: 735 ± 58 nM
[4]; HT29, 24 h
  MtMP Changes: 416 ± 8 RFU
[4]; HT29, 48 h
  MtMP Changes: 343 ± 8 RFU
[4]; HT29, 72 h
  MtMP Changes: 184 ± 5 RFU
[5]
  Percentage COX-2 Inhibitory Activity: 48 ± 3%

## COc1ccc2c(c1)c(CC(=O)OCC(=O)[O][Pt-2]13([OH])([NH2+][C@H]4CCCC[C@@H]4[NH2+]1)[n+]1cccc4cc(C)c5ccc[n+]3c5c41)c(C)n2C(=O)c1ccc(Cl)cc1 [Complex 5, [Pt^IV(5-Mephen)(SS-DACH)(ACE)(OH)]^2+]
[1]
  GI50: 13 ± 8 nM
[2]
  GI50: 60 ± 45 nM
[3]; [7]
  GI50: 70 ± 15 nM
[4]; HT29, 24 h
  MtMP Changes: 412 ± 4 RFU
[4]; HT29, 48 h
  MtMP Changes: 284 ± 12 RFU
[4]; HT29, 72 h
  MtMP Changes: 140 ± 5 RFU
[5]
  Percentage COX-2 Inhibitory Activity: 36 ± 2%

## Cc1cc2c3c4c1=CC=C[N]4[Pt+2][N]3C=CC=2.N[C@H]1CCCC[C@@H]1N [Complex 5MESS]
[4]; HT29, 24 h
  MtMP Changes: 210 ± 15 RFU
[4]; HT29, 48 h
  MtMP Changes: 204 ± 6 RFU
[4]; HT29, 72 h
  MtMP Changes: 144 ± 5 RFU
[5]
  Percentage COX-2 Inhibitory Activity: 6 ± 3%

## Cc1c(C)c2cccnc2c2ncccc12.N[C@H]1CCCC[C@@H]1N.[Pt] [Complex 56MESS, [Pt^II(5,6-Me2phen)(SS-DACH)]^2+]
[4]; HT29, 24 h
  MtMP Changes: 156 ± 10 RFU
[4]; HT29, 48 h
  MtMP Changes: 162 ± 13 RFU
[4]; HT29, 72 h
  MtMP Changes: 103 ± 7 RFU
[5]
  Percentage COX-2 Inhibitory Activity: 5 ± 4%

## COc1ccc2cc([C@H](C)C(=O)O)ccc2c1 [NPX, naproxen]
[1]; Homo sapiens, HT-29
  GI50: > 50000 nM
[3]; [6]
  GI50: > 50000 nM
[3]; [7]
  GI50: > 50000 nM
[4]; HT29, 24 h
  MtMP Changes: 499 ± 10 RFU
[4]; HT29, 48 h
  MtMP Changes: 397 ± 13 RFU
[4]; HT29, 72 h
  MtMP Changes: 304 ± 9 RFU
[5]; 72 h
  Percentage COX-2 Inhibitory Activity: 83 ± 5%

## C1=C[N]2[Pt+2][N]3C=CC=c4ccc(c2c43)=C1.N[C@H]1CCCC[C@@H]1N [PHENSS]
[4]; HT29, 24 h
  MtMP Changes: 289 ± 17 RFU
[4]; HT29, 48 h
  MtMP Changes: 271 ± 15 RFU
[4]; HT29, 72 h
  MtMP Changes: 237 ± 10 RFU
[5]
  Percentage COX-2 Inhibitory Activity: 8 ± 4%
